In patent US7842802B2, “Vinorelbine derivatives” (priority 2003, dated 2010):
Where a name gives a salt, the structure may show the parent alone.

Tests used:
[1] = system: HeLa S-3 human cervical carcinoma cell line; experiment: HeLa GI50 determination (SRB); type: cell-based; conditions: Homo sapiens, HeLa S3, 48 h; HeLa S-3, 2 days of treatment, SRB; read-out: HeLa Cells GI50
Description: Growth inhibition (GI50) values were measured on the human cervical carcinoma cell line, HeLa S-3, which were selected for growth on plastic. The HeLa cell assay was based on the description of Skehan et al., J. Natl. Cancer Inst., 82:1107-12 (1990), which is hereby incorporated by reference in its entirety. HeLa cells were plated at 2×10^4 cells/well in 96 well plates. One day later, a control plate was fixed by the addition of TCA to 5%. After five rinses with tap water, the plate was air-dried and stored at 4° C. Test compounds were added to the remaining plates at 10-fold dilutions. Two days later, all plates were fixed as described above. Cells were then stained by the addition of 100 μL per well of 0.4% sulforhodamine B (SRB) in 1% acetic acid for 30 min at 4° C. Wells were then quickly rinsed 5× with 1% acetic acid and allowed to air dry. The SRB was then solubilized by the addition of 100 μL per well of unbuffered 10 mM Tris base. Dye was quantified by measuring absorbance at 490 nm on a Molecular Devices microplate reader. Growth inhibition was calculated according to the following equation: GI=100×(T−T0)/(C−T0), where the optical density (OD) of the test well after 2 days of treatment was T, the OD of the wells in the control plate on day 0 was T0 and C was the OD of untreated wells. Plots of percent growth inhibition versus inhibitor concentration were used to determine the GI50.

[2] = system: MCF-7 human breast carcinoma line; experiment: MCF-7 GI50 determination (crystal violet); type: cell-based; conditions: Homo sapiens, MCF7, 96 h; MCF-7, 4 days of treatment, crystal violet; read-out: MCF-7 Cells GI50
Description: Growth inhibition (GI50) values were measured on the human breast carcinoma line, MCF-7. MCF-7 cells were plated at 2×10^4 cells/well in 96 well plates and grown for 24 hours in drug free media. On day 2, test compounds were added to the plates at 10-fold dilutions. Four days later, cells were fixed by the addition of glutaraldehyde to 0.75%. After 30 min, the fixed cells were extensively rinsed with distilled water and dried at room temperature for one hour. The cells were then stained with a 0.2% crystal violet solution for one hour at room temperature. Unbound stain was removed by ten rinses with tap water and plates were allowed to air dry for 30 min. The crystal violet was then solubilized by the addition of 10% acetic acid for 15 min and quantified by measuring absorbance at 570 nm on a Molecular Devices microplate reader. Growth inhibition was calculated according to the following equation: GI=[…], where the optical density (OD) of the test well after 4 days of treatment was T, the OD of the wells in the control plate on day 0 was T0. Plots of percent growth inhibition versus inhibitor concentration were used to determine the GI50.

| SMILES | melting point | GI50 [1] [nM] | GI50 [2] [nM] |
| --- | --- | --- | --- |
| CCC1=C[C@H]2CN(C1)Cc1c([nH]c3ccc(SCCC(=O)OC)cc13)[C@@](C(=O)OC)(c1cc3c(cc1OC)N(C)[C@H]1[C@@](O)(C(=O)OC)[C@H](OC(C)=O)C4C(CC)=CCN5CC[C@]31[C@H]45)C2 (some centres unmarked) (as salt: tartrate) [Example 7, 11′-(methoxycarbonylethylsulfanyl) vinorelbine] | 140 to 170 °C (dec.) |  |  |
| CCC1=C[C@H]2CN(C1)Cc1c([nH]c3ccc(Sc4ccccc4)cc13)[C@@](C(=O)OC)(c1cc3c(cc1OC)N(C)[C@H]1[C@@](O)(C(=O)OC)[C@H](OC(C)=O)C4C(CC)=CCN5CC[C@]31[C@H]45)C2 (some centres unmarked) [Example 17, 11′-(phenysulfanyl) vinorelbine] |  | 20 | 300 |
| CCC1=C[C@H]2CN(C1)Cc1c([nH]c3ccc([S+]([O-])CCCO)cc13)[C@@](C(=O)OC)(c1cc3c(cc1OC)N(C)[C@H]1[C@@](O)(C(=O)OC)[C@H](OC(C)=O)C4C(CC)=CCN5CC[C@]31[C@H]45)C2 (some centres unmarked) [Example 20, 11′-(3-hydroxypropylsulfinyl)vinorelbine] |  | 40 | 300 |
| CCCCC#Cc1ccc2[nH]c3c(c2c1)CN1CC(CC)=C[C@@H](C1)C[C@]3(C(=O)OC)c1cc2c(cc1OC)N(C)[C@H]1[C@@](O)(C(=O)OC)[C@H](OC(C)=O)C3C(CC)=CCN4CC[C@]21[C@H]34 (some centres unmarked) [Example 22, 11′-hexynylvinorelbine] |  | 40 | 50 |
| C=Cc1ccc2[nH]c3c(c2c1)CN1CC(CC)=C[C@@H](C1)C[C@]3(C(=O)OC)c1cc2c(cc1OC)N(C)[C@H]1[C@@](O)(C(=O)OC)[C@H](OC(C)=O)C3C(CC)=CCN4CC[C@]21[C@H]34 (some centres unmarked) [Example 3, 11′-vinylvinorelbine] |  | 3 | 7 |
| CCC1=C[C@H]2CN(C1)Cc1c([nH]c3ccc(-c4c(C)noc4C)cc13)[C@@](C(=O)OC)(c1cc3c(cc1OC)N(C)[C@H]1[C@@](O)(C(=O)OC)[C@H](OC(C)=O)C4C(CC)=CCN5CC[C@]31[C@H]45)C2 (some centres unmarked) [Example 32, 11′-(3,5-dimethylisoxazol-4yl)vinorelbine] |  | 300 | 400 |
| CCC1=C[C@H]2CN(C1)Cc1c([nH]c3ccc([S+]([O-])CCO)cc13)[C@@](C(=O)OC)(c1cc3c(cc1OC)N(C)[C@H]1[C@@](O)(C(=O)OC)[C@H](OC(C)=O)C4C(CC)=CCN5CC[C@]31[C@H]45)C2 (some centres unmarked) [Example 19, 11′-(3-hydroxyethylsulfinyl)vinorelbine] |  | 300 | > 1000 |
| CCC1=C[C@H]2CN(C1)Cc1c([nH]c3ccc(C(C)=O)cc13)[C@@](C(=O)OC)(c1cc3c(cc1OC)N(C)[C@H]1[C@@](O)(C(=O)OC)[C@H](OC(C)=O)C4C(CC)=CCN5CC[C@]31[C@H]45)C2 (some centres unmarked) [Example 26, 11′-acetylvinorelbine] |  | 4 | 20 |
| CCC1=C[C@H]2CN(C1)Cc1c([nH]c3ccc(Sc4cccc(O)c4)cc13)[C@@](C(=O)OC)(c1cc3c(cc1OC)N(C)[C@H]1[C@@](O)(C(=O)OC)[C@H](OC(C)=O)C4C(CC)=CCN5CC[C@]31[C@H]45)C2 (some centres unmarked) [Example 18, 11′-(3-hydroxyphenysulfanyl)vinorelbine] |  | 30 | 300 |
| CCC1=C[C@H]2CN(C1)Cc1c([nH]c3ccc(N)cc13)[C@@](C(=O)OC)(c1cc3c(cc1OC)N(C)[C@H]1[C@@](O)(C(=O)OC)[C@H](OC(C)=O)C4C(CC)=CCN5CC[C@]31[C@H]45)C2 (some centres unmarked) [Example 35, 11′-aminovinorelbine] |  | 300 | 600 |
| CCC1=C[C@H]2CN(C1)Cc1c([nH]c3ccc(I)cc13)[C@@](C(=O)OC)(c1cc3c(cc1OC)N(C)[C@H]1[C@@](OC)(C(=O)OC)[C@H](OC(C)=O)C4C(CC)=CCN5CC[C@]31[C@H]45)C2 (some centres unmarked) [Example 34, 3-methyl-11′-iodo vinorelbine] |  | 30 | 30 |
| CCC1=C[C@H]2CN(C1)Cc1c([nH]c3ccc(S)cc13)[C@@](C(=O)OC)(c1cc3c(cc1OC)N(C)[C@H]1[C@@](O)(C(=O)OC)[C@H](OC(C)=O)C4C(CC)=CCN5CC[C@]31[C@H]45)C2 (some centres unmarked) [Example 8, 11′-thiovinorelbine] |  | 40 | 60 |
| CCC1=C[C@H]2CN(C1)Cc1c([nH]c3ccc(-c4cccc(O)c4)cc13)[C@@](C(=O)OC)(c1cc3c(cc1OC)N(C)[C@H]1[C@@](O)(C(=O)OC)[C@H](OC(C)=O)C4C(CC)=CCN5CC[C@]31[C@H]45)C2 (some centres unmarked) [Example 31, 11′-(3-hydroxyphenyl) vinorelbine] |  | 300 | 600 |
| CCC1=C[C@H]2CN(C1)Cc1c([nH]c3ccc(SCCO)cc13)[C@@](C(=O)OC)(c1cc3c(cc1OC)N(C)[C@H]1[C@@](O)(C(=O)OC)[C@H](OC(C)=O)C4C(CC)=CCN5CC[C@]31[C@H]45)C2 (some centres unmarked) [Example 14, 11′-(2-hydroxyethylsulfanyl)vinorelbine] |  | 30 | 50 |
| CCC1=C[C@H]2CN(C1)Cc1c([nH]c3ccc(SCCC(=O)OC)cc13)[C@@](C(=O)OC)(c1cc3c(cc1OC)N(C)[C@H]1[C@@](O)(C(=O)OC)[C@H](OC(C)=O)C4C(CC)=CCN5CC[C@]31[C@H]45)C2 (some centres unmarked) [Example 7, 11′-(methoxycarbonylethylsulfanyl) vinorelbine] |  | 200 | 400 |
| CCC1=C[C@H]2CN(C1)Cc1c([nH]c3ccc(C(=O)OC)cc13)[C@@](C(=O)OC)(c1cc3c(cc1OC)N(C)[C@H]1[C@@](O)(C(=O)OC)[C@H](OC(C)=O)C4C(CC)=CCN5CC[C@]31[C@H]45)C2 (some centres unmarked) [Example 27, 11′-(methoxycarbonyl) vinorelbine] |  | 30 | 50 |
| CCSc1ccc2[nH]c3c(c2c1)CN1CC(CC)=C[C@@H](C1)C[C@]3(C(=O)OC)c1cc2c(cc1OC)N(C)[C@H]1[C@@](O)(C(=O)OC)[C@H](OC(C)=O)C3C(CC)=CCN4CC[C@]21[C@H]34 (some centres unmarked) [Example 11, 11′-(ethylsulfanyl) vinorelbine] |  | 5 | 20 |
| C#Cc1ccc2[nH]c3c(c2c1)CN1CC(CC)=C[C@@H](C1)C[C@]3(C(=O)OC)c1cc2c(cc1OC)N(C)[C@H]1[C@@](O)(C(=O)OC)[C@H](OC(C)=O)C3C(CC)=CCN4CC[C@]21[C@H]34 (some centres unmarked) [Example 21, 11′-ethynylvinorelbine] |  | 0.4 | 5 |
| CCC1=C[C@H]2CN(C1)Cc1c([nH]c3ccc(SCC(=O)OC)cc13)[C@@](C(=O)OC)(c1cc3c(cc1OC)N(C)[C@H]1[C@@](O)(C(=O)OC)[C@H](OC(C)=O)C4C(CC)=CCN5CC[C@]31[C@H]45)C2 (some centres unmarked) [Example 9, 11′-(methoxycarbonylmethylsulfanyl) vinorelbine] |  | 20 | 30 |
| CCC1=C[C@H]2CN(C1)Cc1c([nH]c3ccc(SCCCCO)cc13)[C@@](C(=O)OC)(c1cc3c(cc1OC)N(C)[C@H]1[C@@](O)(C(=O)OC)[C@H](OC(C)=O)C4C(CC)=CCN5CC[C@]31[C@H]45)C2 (some centres unmarked) [Example 12, 11′-(4-hydroxybutylsulfanyl)vinorelbine] |  | 20 | 40 |
| CCC1=C[C@H]2CN(C1)Cc1c([nH]c3ccc(C#CCC(C)C)cc13)[C@@](C(=O)OC)(c1cc3c(cc1OC)N(C)[C@H]1[C@@](O)(C(=O)OC)[C@H](OC(C)=O)C4C(CC)=CCN5CC[C@]31[C@H]45)C2 (some centres unmarked) [Example 23, 11′-(4-methylpentynyl) vinorelbine] |  | 300 | 300 |
| CCC1=C[C@H]2CN(C1)Cc1c([nH]c3ccc(Nc4ccc(OC)cc4)cc13)[C@@](C(=O)OC)(c1cc3c(cc1OC)N(C)[C@H]1[C@@](O)(C(=O)OC)[C@H](OC(C)=O)C4C(CC)=CCN5CC[C@]31[C@H]45)C2 (some centres unmarked) [Example 36, 11′-(4-methoxyphenylamino)vinorelbine] |  | 300 | 400 |
| CCC1=C[C@H]2CN(C1)Cc1c([nH]c3ccc(-c4ccccc4)cc13)[C@@](C(=O)OC)(c1cc3c(cc1OC)N(C)[C@H]1[C@@](O)(C(=O)OC)[C@H](OC(C)=O)C4C(CC)=CCN5CC[C@]31[C@H]45)C2 (some centres unmarked) [Example 30, 11′-phenylvinorelbine] |  | 70 | 300 |
| CCC1=C[C@H]2CN(C1)Cc1c([nH]c3ccc(C)cc13)[C@@](C(=O)OC)(c1cc3c(cc1OC)N(C)[C@H]1[C@@](OC)(C(=O)OC)[C@H](OC(C)=O)C4C(CC)=CCN5CC[C@]31[C@H]45)C2 (some centres unmarked) [Example 33, 3,11′-dimethyl vinorelbine] |  | 30 | 50 |
